Measurements from patent US20180228795A1, “COMBINATION THERAPY FOR CANCER” (Eli Lilly and Company, priority 2015, published 2018).

Columns and labels:
Test in all cases: Antitumor effects in PDX mouse model of TNBC
Assay type in all cases: in vivo
[1] = tested on: PDX TNBC Model ST430; details: A 10 mg/kg SC BID 3 days on/4 off ×4, B 7.5 mg/kg PO BID×28, versus vehicle
Text: (§1) Establish PDX tumor models from viable human tumor tissue and serially passage in immunocompromised female mice a limited number of times. Using tumor fragments harvested from donor host animals, perform unilateral subcutaneous implants from a specific passage of the PDX tumor model on the flanks of the experimental animals. When tumor volumes reach approximately 150-250 mm^3 in size, randomize the animals by treatment arm by randomization techniques well known in the art and place into their respective treatment groups using 1 animal per treatment group (3 animals in an untreated group). Formulate CHK1 inhibitor, 5-(5-(2-(3-aminopropoxy)-6-methoxyphenyl)-1H-pyrazol-3-ylamino)pyrazine-2-carbonitrile methanesulfonate hydrate, (Compound A) every 14 days in 20% captisol (dissolved in water) and administer subcutaneously twice daily at a dose of 10 mg/kg on days 1/2/3 of a weekly cycle for 4 weeks (SC, BID [3 days on/4 off]×4). Formulate the PI3K/mTOR dual inhibitor, 8-[5-(1-hydroxy-1-methylethyl)pyridin-3-yl]-1-[(2S)-2-methoxypropyl]-3-methyl-1,3-dihydro-2H-imidazo[4,5-c]quinolin-2-one, (Compound B) weekly in 1% (HEC)/0.25% Tween 80 (Polysorbate 80)/0.05% Dow-Corning Antifoam 1510-US and administer by oral gavage twice-daily for 28 days (PO, BID×28) at a dose of 7.5 mg/kg. Dose combination treatment animals with both compounds according to the schedule described above for monotherapy, and dose vehicle treatment animals with vehicle according to the schedule for Compound B.
(§2) Test the combination of Compound A and Compound B, as well as their respective monotherapies, in 40 PDX models (Table 1) of TNBC. Assess antitumor efficacy of the treatment groups by measuring tumor volume via caliper measurements twice a week during the course of the study. Measure body weight twice weekly during the course of the study as a general indicator of tolerability.
(§3) Capture tumor size and body weight twice per week. Estimate tumor volume (V) by using the formula: V=(π/6)×L×W^2 where L=larger of measured diameter and W=smaller perpendicular diameter. Calculate relative tumor volume using the tumor volume measurement taken nearest to the last day of dosing for each animal (T), divided by the baseline tumor volume for that animal (T0), which is the volume recorded on or just prior to the first day of dosing, Y=T/T0. Calculate % ΔT/ΔC values using the formula % ΔT/ΔC=100(YT−1)/(YC−1), whereby YT or YC=geometric mean relative volume of the compound treated group or the control group, respectively. Tumor growth inhibition is observed in those instances where the calculated values for % ΔT/ΔC are less than 100% whereby greater inhibition results in smaller % ΔT/ΔC values. If ΔT<0, then a tumor regression value is calculated instead of % ΔT/ΔC whereby % Regression=100(YT−1). Note that negative values indicate regression. We collectively refer to % ΔT/ΔC and % Regression as % Response.
(§4) Examine relative tumor volume (final volume divided by baseline volume) on the last day of treatment or the last day on which data from all three treatment groups and vehicle is available, if it is earlier than the last day of treatment and at least 14 days after baseline. Expected additive relative volume is determined using the Bliss method (Bliss, C. I., Ann Appl Biol, 1939; 26(3):585-615). Specifically, denoting Y=relative volume, YExp=(Y1*Y2)/YV, where YExp=expected additive relative volume, Y1 and Y2 are the relative volumes in the single agent groups (Compound A and Compound B), and YV is the relative volume in the vehicle group. A range of additivity is defined around the expected additive relative volume via upper and lower limits as follows:
(§5) Yupper=max(2*YExp,YExp+0.2)
(§6) Ylower=min(YExp/2,YExp−0.2)
(§7) The upper limit of the range is the larger of 2-fold above or 20% above the expected additive relative volume, and the lower limit is the smaller of 2-fold below or 20% below the expected additive relative volume. […]

[2] = tested on: PDX TNBC Model CTG-1408; details: PDX model CTG-1408; A 10 mg/kg SC BID 3 days on/4 off ×4; B 7.5 mg/kg PO BID×28; versus vehicle
Text: as §1, §2, §3, §4, §5, §6, §7

[3] = tested on: PDX TNBC Model CTG-0052; details: PDX model CTG-0052; A 10 mg/kg SC BID 3 days on/4 off ×4; B 7.5 mg/kg PO BID×28; versus vehicle
Text: as §1, §2, §3, §4, §5, §6, §7

[4] = tested on: PDX TNBC Model CTG-0437; details: PDX model CTG-0437; A 10 mg/kg SC BID 3 days on/4 off ×4; B 7.5 mg/kg PO BID×28; versus vehicle
Text: as §1, §2, §3, §4, §5, §6, §7

[5] = tested on: PDX TNBC Model CTG-1019; details: PDX model CTG-1019; A 10 mg/kg SC BID 3 days on/4 off ×4; B 7.5 mg/kg PO BID×28; versus vehicle
Text: as §1, §2, §3, §4, §5, §6, §7

[6] = tested on: PDX TNBC Model CTG-1520; details: PDX model CTG-1520; A 10 mg/kg SC BID 3 days on/4 off ×4; B 7.5 mg/kg PO BID×28; versus vehicle
Text: as §1, §2, §3, §4, §5, §6, §7

[7] = tested on: PDX TNBC Model CTG-0888; details: PDX model CTG-0888; A 10 mg/kg SC BID 3 days on/4 off ×4; B 7.5 mg/kg PO BID×28; versus vehicle
Text: as §1, §2, §3, §4, §5, §6, §7

[8] = tested on: PDX TNBC Model CTG-0986; details: PDX model CTG-0986; A 10 mg/kg SC BID 3 days on/4 off ×4; B 7.5 mg/kg PO BID×28; versus vehicle
Text: as §1, §2, §3, §4, §5, §6, §7

[9] = tested on: PDX TNBC Model CTG-0012; details: PDX model CTG-0012; A 10 mg/kg SC BID 3 days on/4 off ×4; B 7.5 mg/kg PO BID×28; versus vehicle
Text: as §1, §2, §3, §4, §5, §6, §7

[10] = tested on: PDX TNBC Model CTG-0869; details: PDX model CTG-0869; A 10 mg/kg SC BID 3 days on/4 off ×4; B 7.5 mg/kg PO BID×28; versus vehicle
Text: as §1, §2, §3, §4, §5, §6, §7

[11] = tested on: PDX TNBC Model ST848; details: A 10 mg/kg SC BID 3 days on/4 off ×4, B 7.5 mg/kg PO BID×28, versus vehicle
Text: as §1, §2, §3, §4, §5, §6, §7

[12] = tested on: PDX TNBC Model CTG-1151; details: PDX model CTG-1151; A 10 mg/kg SC BID 3 days on/4 off ×4; B 7.5 mg/kg PO BID×28; versus vehicle
Text: as §1, §2, §3, §4, §5, §6, §7

For `COc1cccc(OCCCN)c1-c1cc(Nc2cnc(C#N)cn2)n[nH]1.CS(=O)(=O)O` [Compound A, 5-(5-(2-(3-aminopropoxy)-6-methoxyphenyl)-1H-pyrazol-3-ylamino)pyrazine-2-carbonitrile methanesulfonate hydrate], the “% Rsp. (% ΔT/ΔC or % Regression)” value [1] was 80.9%, the “% Rsp. (% ΔT/ΔC or % Regression)” value [2] was 11.1% and the “% Rsp. (% ΔT/ΔC or % Regression)” value [3] was 41.3%. For the same compound, the “% Rsp. (% ΔT/ΔC or % Regression)” value [4] was −87.5%, the “% Rsp. (% ΔT/ΔC or % Regression)” value [5] was 86.6% and the “% Rsp. (% ΔT/ΔC or % Regression)” value [6] was 49.9%. For the same compound, the “% Rsp. (% ΔT/ΔC or % Regression)” value [7] was 15.0%, the “% Rsp. (% ΔT/ΔC or % Regression)” value [8] was 32.2% and the “% Rsp. (% ΔT/ΔC or % Regression)” value [9] was 33.4%. The “% Rsp. (% ΔT/ΔC or % Regression)” value [10] was 52.6%, the “% Rsp. (% ΔT/ΔC or % Regression)” value [11] was −50.0% and the “% Rsp. (% ΔT/ΔC or % Regression)” value [12] was −84.6%.

In the case of `CO[C@@H](C)Cn1c(=O)n(C)c2cnc3ccc(-c4cncc(C(C)(C)O)c4)cc3c21` [Compound B, 8-[5-(1-hydroxy-1-methylethyl)pyridin-3-yl]-1-[(2S)-2-methoxypropyl]-3-methyl-1,3-dihydro-2H-imidazo[4,5-c]quinolin-2-one], the “% Rsp. (% ΔT/ΔC or % Regression)” value [1] is reported as 59.2%, the “% Rsp. (% ΔT/ΔC or % Regression)” value [2] is reported as 27.5% and the “% Rsp. (% ΔT/ΔC or % Regression)” value [3] is reported as 8.6%. The “% Rsp. (% ΔT/ΔC or % Regression)” value [4] was 80.3%, the “% Rsp. (% ΔT/ΔC or % Regression)” value [5] was 158.0% and the “% Rsp. (% ΔT/ΔC or % Regression)” value [6] was 61.2%. The “% Rsp. (% ΔT/ΔC or % Regression)” value [7] was 21.2%, the “% Rsp. (% ΔT/ΔC or % Regression)” value [8] was 54.6% and the “% Rsp. (% ΔT/ΔC or % Regression)” value [9] was 49.0%. The “% Rsp. (% ΔT/ΔC or % Regression)” value [10] was 64.9%, the “% Rsp. (% ΔT/ΔC or % Regression)” value [11] was 24.6% and the “% Rsp. (% ΔT/ΔC or % Regression)” value [12] was 92.5%.
